In paper PMC10177380 (Cancers, 2023):
Like-named read-outs stand apart in the source and are kept apart here.

Key:
SJG2 glioblastoma = assay: MTT growth inhibition, 72 h, SJG2; type: cell-based
A431 skin = assay: MTT growth inhibition, 72 h, A431; type: cell-based
HT29 colon cells = assay: Mitochondrial membrane potential, TMRE-MtMP assay; type: cell-based, human; conditions: treatment at GI50 concentration (FCCP positive control 20 μM)
From the text: To study the MtMP changes in treated cells, a TMRE-MtMP Assay Kit (Abcam, Cambridge, MA, USA) was used (see Supplementary Materials).
TMRE was used to stain HT29 colon cells, and treatment with the complexes and ligands was completed at each specific GI50 concentration. The MtMP changes detected are expressed as RFU. Additionally, lower RFU values correspond to a decline in mitochondrial activity. […]
dimethylthiazol-2-yl]-2,5-diphenyltetrazolium bromide) assay and absorbance was read at 540 nm. An eight-point dose response curve was produced from which the GI50 value was calculated, representing the drug concentration at which cell growth was inhibited by 50% based on the difference between the optical density values on day 0 and those at the end of drug exposure. […]
5. Mitochondrial Membrane Potential (MtMP)
In 96-well plates, 25,000 cells/mL of HT29 colon cells in DMEM were seeded. Cells were treated with a GI50 drug concentration for each complex. […]
washed with PBS and stained with 1 μM tetramethylrhodamine, ethyl ester (TMRE) and incubated for 30 min. TMRE was then removed, and cells were then re-washed with PBS (0.2% BSA), after which phenol red free media was added. The plates were directly scanned to measure fluorescence (expressed as RFU), using the Glo-Max®-Multimode […]
microplate reader (Promega Corporation, Alexandra, VIC, Australia) at an […]
For the positive control, 20 μM carbonyl cyanide 4-(trifluoromethoxy) phenylhydrazone (FCCP)) was added to the cells and incubated for 10 min. The cells were washed with PBS (0.2% BSA) and stained with TMRE (1 μM) for 30 min; this was removed and phenol red free media was added, and the final solution was scanned as mentioned above. […]

COX-2 (human) = target: T1, COX-2 (human) (Homo sapiens, UniProt P35354); assay: COX-2 (human) Inhibitor Screening Assay Kit (ELISA); type: biochemical; set-up: concentration or dose not given beside the values
T1 construct: purchased Cayman Chemical Item No. 701080
T1 sequence (P35354 18-604): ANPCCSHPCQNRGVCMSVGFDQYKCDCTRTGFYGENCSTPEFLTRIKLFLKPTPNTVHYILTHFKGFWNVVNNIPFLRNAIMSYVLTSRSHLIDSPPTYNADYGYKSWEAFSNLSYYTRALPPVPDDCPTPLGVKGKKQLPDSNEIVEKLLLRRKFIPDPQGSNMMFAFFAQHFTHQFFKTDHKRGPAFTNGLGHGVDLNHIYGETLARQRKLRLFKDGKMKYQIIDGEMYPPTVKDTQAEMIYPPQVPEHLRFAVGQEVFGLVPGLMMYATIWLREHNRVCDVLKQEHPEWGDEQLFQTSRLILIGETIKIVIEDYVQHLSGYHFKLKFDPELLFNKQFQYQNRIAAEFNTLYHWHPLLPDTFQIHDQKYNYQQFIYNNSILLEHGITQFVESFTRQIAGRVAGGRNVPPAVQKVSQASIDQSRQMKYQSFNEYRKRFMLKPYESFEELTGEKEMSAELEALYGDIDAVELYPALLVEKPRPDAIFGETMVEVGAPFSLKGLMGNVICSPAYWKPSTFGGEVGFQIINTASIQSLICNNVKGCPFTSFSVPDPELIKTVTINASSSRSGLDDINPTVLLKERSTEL
From the text: NSAIDs are well recognised as inhibitors of the COX enzymes, COX-1 and COX-2 [37, 42, 45]. […] COX-1 is typically expressed in most tissues and is associated with normal physiological functions, particularly by maintaining prostaglandin production at basal levels. In contrast, COX-2 is involved in the excessive production of prostaglandin during inflammation (or hypoxia), and extensive studies have shown that COX-2 resultant prostaglandins are overexpressed in tumours. […] To explore the COX-2 inhibitory properties of the studied complexes (1–6), ELISA was used against the COX-2 enzyme. […]
6. Cyclooxygenase-2 (COX-2) Inhibition
The standards, samples and assay preparation, and completion were achieved as instructed by the manufacturer. The assay necessitated three steps, being the standards preparation, the COX reaction, and the enzyme immunoassay. The standards were prepared in 2-fold serial dilution of the prostaglandin F2α enzyme-linked immunosorbent assay (ELISA) standard starting at 500 pg/mL to 3.9 pg/mL in ELISA buffer (1X). The COX reaction dilution preparation for the background samples included the addition of background COX-2 (20 μL), which was inactivated in boiling water for 3 min. The background values were generated by adding 10 μL of the inactivated COX-2, 160 μL of the reaction buffer (1X), 10 μL of heme and 10 μL of DMSO (inhibitor vehicle). The COX reaction dilution preparation for the COX-2 100% initial activity samples included the addition 160 μL of the reaction buffer (1X), 10 μL of heme, 10 μL of COX-2 and 10 μL of DMSO (inhibitor vehicle). The COX reaction dilution preparation for the COX-2 inhibitor samples included the addition of 160 μL of the reaction buffer (1X), 10 μL of heme, 10 μL […]
The reaction was then initiated by the addition of 10 μL of arachidonic acid and potassium hydroxide solution (1:1), and […]
enzyme catalysis. The tubes were then vortexed and incubated for 5 min at room […]
temperature. The background samples were diluted with ELISA buffer (1X) 1:100 times […]
and the COX-2 100% initial activity and COX-2 inhibitor samples were diluted 1:2000 and […]
1:4000 times. For the enzyme immunoassay, 100 μL of the ELISA buffer (1X) was added […]
to non-specific binding wells (NSBs), 50 μL of the ELISA buffer (1X) was added to […]
maximum binding wells (B0) and 50 μL of each prostaglandin F2α standard was added to […]
standard wells in duplicates. 50 μL of background sample and 50 μL of COX-2 100% […]
initial activity samples were independently added to the wells in duplicates. Inhibitor […]
samples (50 μL) being investigated were added to the wells in triplicates. Prostaglandin […]
F2α acetyl-cholinesterase (AChE) tracer (50 μL) was added to all wells but the total […]
activity well and blank wells. Prostaglandin F2α ELISA antiserum (50 μL) was added to […]
each well but the total activity well, NSBs and blank wells. The plate was then covered […]
with a plastic seal and incubated overnight at room temperature on an orbital shaker. The […]
wells were then washed five times using kit wash buffer (1X). Ellman’s reagent (200 μL) […]
was then added to each well, as well as 5 μL of the AChE tracer into the total activity […]
well. The plate was then covered with the plastic seal, placed on an orbital shaker in the […]
dark to develop for 2 hours at room temperature. […]
nm using the SpectraMax M2 series multi-mode microplate reader (Molecular Devices, […]

BE2C neuroblastoma = assay: MTT growth inhibition, 72 h, BE2C; type: cell-based; conditions: for GI50: BE2C, MTT, 72 h
U87 glioblastoma = assay: MTT growth inhibition, 72 h, U87; type: cell-based

Row | Compound | GI50 (SJG2 glioblastoma) [nM] | GI50 (A431 skin) [nM] | MtMP Changes (HT29 colon cells; HT29, 24 h) [RFU] | MtMP Changes (HT29 colon cells; HT29, 48 h) [RFU] | MtMP Changes (HT29 colon cells; HT29, 72 h) [RFU] | Percentage COX-2 Inhibitory Activity (COX-2 (human)) [%] | GI50 (BE2C neuroblastoma) [nM] | GI50 (U87 glioblastoma) [nM] | GI50 (SJG2 glioblastoma; SJ-G2) [nM] | Percentage COX-2 Inhibitory Activity (COX-2 (human); 72 h) [%] | GI50 (BE2C neuroblastoma; Homo sapiens, BE(2)-C) [nM] | fold decrease of GI50 relative to the platinum(IV) scaffold (BE2C neuroblastoma) [fold] | GI50 (A431 skin; Homo sapiens, A-431) [nM]
1 | COc1ccc2cc([C@H](C)C(=O)[O][Pt+2]3([OH])[N]4C=CC=c5ccc6c(c54)[N]3C=CC=6)ccc2c1.N[C@H]1CCCC[C@@H]1N [Complex 1, [Pt^IV(phen)(SS-DACH)(NPX)(OH)]^2+] | 1570 ± 67 | 1020 ± 390 | 382 ± 11 | 211 ± 12 | 163 ± 5 | 55 ± 3 | 1470 ± 67 | 2570 ± 440 |  |  |  |  | 
2 | COc1ccc2cc([C@H](C)C(=O)O)ccc2c1 [NPX, naproxen] |  |  | 499 ± 10 | 397 ± 13 | 304 ± 9 |  |  | > 50000 | > 50000 | 83 ± 5 | > 50000 |  | 
3 | C1=C[N]2[Pt+2][N]3C=CC=c4ccc(c2c43)=C1.N[C@H]1CCCC[C@@H]1N [PHENSS] |  |  | 289 ± 17 | 271 ± 15 | 237 ± 10 | 8 ± 4 |  |  |  |  |  |  | 
4 | Cc1c(C)c2cccnc2c2ncccc12.N[C@H]1CCCC[C@@H]1N.[Pt] [Complex 56MESS, [Pt^II(5,6-Me2phen)(SS-DACH)]^2+] |  |  | 156 ± 10 | 162 ± 13 | 103 ± 7 | 5 ± 4 |  |  |  |  |  |  | 
5 | Cc1cc2c3c4c1=CC=C[N]4[Pt+2][N]3C=CC=2.N[C@H]1CCCC[C@@H]1N [Complex 5MESS] |  |  | 210 ± 15 | 204 ± 6 | 144 ± 5 | 6 ± 3 |  |  |  |  |  |  | 
6 | COc1ccc2c(c1)c(CC(=O)OCC(=O)[O][Pt-2]13([OH])([NH2+][C@H]4CCCC[C@@H]4[NH2+]1)[n+]1cccc4cc(C)c5ccc[n+]3c5c41)c(C)n2C(=O)c1ccc(Cl)cc1 [Complex 5, [Pt^IV(5-Mephen)(SS-DACH)(ACE)(OH)]^2+] | 200 ± 21 | 60 ± 45 | 412 ± 4 | 284 ± 12 | 140 ± 5 | 36 ± 2 | 250 ± 33 | 140 ± 8 |  |  |  | 5.6 | 
7 | COc1ccc2cc([C@H](C)C(=O)[O][Pt+2]3([OH])[N]4C=CC=c5c(C)c(C)c6c(c54)[N]3C=CC=6)ccc2c1.N[C@H]1CCCC[C@@H]1N [Complex 3, [Pt^IV(5,6-Me2phen)(SS-DACH)(NPX)(OH)]^2+] | 230 ± 18 | 75 ± 33 | 351 ± 5 | 152 ± 8 | 104 ± 6 | 37 ± 4 | 220 ± 12 | 180 ± 23 |  |  |  |  | 
8 | COc1ccc2c(c1)c(CC(=O)OCC(=O)O)c(C)n2C(=O)c1ccc(Cl)cc1 [ACE, acemetacin] |  |  | 494 ± 6 | 371 ± 10 | 295 ± 13 | 76 ± 8 |  | > 50000 | > 50000 |  | > 50000 |  | > 50000
9 | COc1ccc2c(c1)c(CC(=O)OCC(=O)[O][Pt-2]13([OH])([NH2+][C@H]4CCCC[C@@H]4[NH2+]1)[n+]1cccc4c(C)c(C)c5ccc[n+]3c5c41)c(C)n2C(=O)c1ccc(Cl)cc1 [Complex 6, [Pt^IV(5,6-Me2phen)(SS-DACH)(ACE)(OH)]^2+] | 130 ± 25 | 16 ± 12 | 387 ± 7 | 284 ± 11 | 112 ± 8 | 32 ± 3 | 160 ± 19 | 28 ± 3 |  |  |  |  | 
10 | COc1ccc2c(c1)c(CC(=O)OCC(=O)[O][Pt-2]13([OH])([NH2+][C@H]4CCCC[C@@H]4[NH2+]1)[n+]1cccc4ccc5ccc[n+]3c5c41)c(C)n2C(=O)c1ccc(Cl)cc1 [Complex 4, [Pt^IV(phen)(SS-DACH)(ACE)(OH)]^2+] | 1450 ± 104 | 930 ± 490 | 416 ± 8 | 343 ± 8 | 184 ± 5 | 48 ± 3 | 1300 ± 150 | 1720 ± 140 |  |  |  |  | 
11 | N.N.[Cl][Pt][Cl] [Cisplatin, cis-diamminedichloroplatinum(II)] |  |  | 256 ± 9 | 236 ± 13 | 199 ± 11 | 9 ± 2 |  |  |  |  |  |  | 
12 | COc1ccc2cc([C@H](C)C(=O)[O][Pt+2]3([OH])[N]4C=CC=c5cc(C)c6c(c54)[N]3C=CC=6)ccc2c1.N[C@H]1CCCC[C@@H]1N (some centres unmarked) [Complex 2, [Pt^IV(5-Mephen)(SS-DACH)(NPX)(OH)]^2+] | 620 ± 43 | 530 ± 180 | 368 ± 9 | 160 ± 13 | 130 ± 7 | 44 ± 6 | 680 ± 17 | 1330 ± 190 |  |  |  |  | 
